# Test results published in patent publication US11091514B2, “Peptide macrocycles and use thereof in the treatment of bacterial infections” (Hoffmann-La Roche Inc., priority 2017, dated 2021).
# System: A. baumannii strain ATCC19606
# Type: cell-based, Acinetobacter baumannii
# Conditions: ATCC19606, 20 h
# Description: The in vitro antimicrobial activity of the compounds was determined through microbroth minimum inhibitory concentration (MIC) methodology performed according to the Clinical and Laboratory Standard Institute guidelines (CLSI-M07-A9 January 2012. Methods for Dilution Antimicrobial Susceptibility Tests for Bacteria That Grow Aerobically; Approved Standard Ninth Edition, Clinical and Laboratory Standards Institute, Wayne/PA, US and the CLSI-M100-S24 January 2014. Performance Standards for Antimicrobial Susceptibility Testing; Approved Standard—Fourth Informational Supplement, Clinical and Laboratory Standards Institute, Wayne/PA, US).
# The compound stock solution was freshly prepared at 10× the required top concentration for the MIC determination, i.e. at 1280 mg/L, by reconstitution of the dry compound in 50:50 water:DMSO.
# Polystyrene non-treated 96 wells microtiter plates were used for preparing panel containing compound serial twofold diluted at two times the final testing concentration (e.g. range from 64 to 0.06 μg/ml) in cation adjusted Mueller Hinton broth medium (CAMHB).
# Inoculum was prepared by the “direct colony suspension method”. Colonies of A. baumannii ATCC19606 or clinical isolates were suspended in saline solution and adjusted to 0.5 McFarland, diluted 100 times in CAMHB broth and 50 μl added to each well (final concentration of cells˜5×10^(5) CFU/ml and Final volume/well of 100 μl). Microtiter plates were sealed and incubated at 35±2° C.
# MICs values were read after 20 hours of incubation and recorded as the lowest concentration of the antimicrobial that inhibits more or equal to 80% of growth of the organism as detected by the unaided eye and using a microtiter plate optical density reader (OD 600 nm).
# Table 1 provides the minimum inhibitory concentration (MIC) in microgram per milliliter of the compounds of present invention obtained against the A. baumannii strain ATCC19606.
row,SMILES,ATCC19606 MIC (minimum inhibitory concentration)
1,"CN1C(=O)[C@H](CCCCN)NC(=O)[C@H](CCCN)NCc2ccnc(c2)-c2ccc(Cl)cc2CNC(=O)[C@@H]1Cc1c[nH]c2ccccc12 [Example 11, (11S,14S,17S)-14-(4-Amino-butyl)-17-(3-amino-propyl)-5-chloro-11-(1H-indol-3-ylmethyl)-12-methyl-9,12,15,18,23-pentaaza-tricyclo[18.3.1.0*2,7]tetracosa-1(23),2(7),3,5,20(24),21-hexaene-10,13,16-trione]",32 µg/mL
2,"Cc1ccc2c(c1)CNC(=O)[C@H](Cc1c[nH]c3ccccc13)N(C)C(=O)[C@H](CCCCN)NC(=O)[C@H](CCCN)NCc1cccc-2c1 [Example 7, (11S,14S,17S)-14-(4-Amino-butyl)-17-(3-amino-propyl)-11-(1H-indol-3-ylmethyl)-5,12-dimethyl-9,12,15,18-tetraaza-tricyclo[18.3.1.0*2,7]tetracosa-1(23),2(7),3,5,20(24),21-hexaene-10,13,16-trione]",1 µg/mL
3,"CN1C(=O)[C@H](CCCCN)NC(=O)[C@H](CCCN)NCc2cccc(c2F)-c2ccccc2CNC(=O)[C@@H]1Cc1c[nH]c2ccccc12 [Example 10, (11S,14S,17S)-14-(4-Amino-butyl)-17-(3-amino-propyl)-24-fluoro-11-(1H-indol-3-ylmethyl)-12-methyl-9,12,15,18-tetraaza-tricyclo[18.3.1.0*2,7]tetracosa-1(23),2(7),3,5,20(24),21-hexaene-10,13,16-trione]",16 µg/mL
4,"COc1ccc2c(c1)CNC(=O)[C@H](Cc1c[nH]c3ccccc13)N(C)C(=O)[C@H](CCCCN)NC(=O)[C@H](CCCN)NCc1cccc-2c1 [Example 9, (11S,14S,17S)-14-(4-Amino-butyl)-17-(3-amino-propyl)-11-(1H-indol-3-ylmethyl)-5-methoxy-12-methyl-9,12,15,18-tetraaza-tricyclo[18.3.1.0*2,7]tetracosa-1(23),2(7),3,5,20(24),21-hexaene-10,13,16-trione]",4 µg/mL
5,"CN1C(=O)[C@H](CCCCN)NC(=O)[C@H](CCCN)NCc2cccc(c2)-c2c(cccc2C(F)(F)F)CNC(=O)[C@@H]1Cc1c[nH]c2ccccc12 [Example 2, (11S,14S,17S)-14-(4-Amino-butyl)-17-(3-amino-propyl)-11-(1H-indol-3-ylmethyl)-12-methyl-3-trifluoromethyl-9,12,15,18-tetraaza-tricyclo[18.3.1.0*2,7]tetracosa-1(24),2(7),3,5,20,22-hexaene-10,13,16-trione]",2 µg/mL
6,"CN1C(=O)[C@H](CCCCN)NC(=O)[C@H](CCCN)NCc2cccc(c2)-c2cccc(Cl)c2CNC(=O)[C@@H]1Cc1c[nH]c2ccccc12 [Example 6, (11S,14S,17S)-14-(4-Amino-butyl)-17-(3-amino-propyl)-6-chloro-11-(1H-indol-3-ylmethyl)-12-methyl-9,12,15,18-tetraaza-tricyclo[18.3.1.0*2,7]tetracosa-1(23),2(7),3,5,20(24),21-hexaene-10,13,16-trione]",32 µg/mL
7,"CN1C(=O)[C@H](CCCCN)NC(=O)[C@H](CCCN)NCc2cccc(c2)-c2ccccc2CNC(=O)[C@@H]1Cc1c[nH]c2ccccc12 [Example 1, (11S,14S,17S)-14-(4-Amino-butyl)-17-(3-amino-propyl)-11-(1H-indol-3-ylmethyl)-12-methyl-9,12,15,18-tetraaza-tricyclo[18.3.1.0*2,7]tetracosa-1(24),2(7),3,5,20,22-hexaene-10,13,16-trione]",32 µg/mL
8,"CN1C(=O)[C@H](CCCCN)NC(=O)[C@H](CCCN)NCc2cccc(c2)-c2ccc(C(F)(F)F)cc2CNC(=O)[C@@H]1Cc1c[nH]c2ccccc12 [Example 3, (11S,14S,17S)-14-(4-Amino-butyl)-17-(3-amino-propyl)-11-(1H-indol-3-ylmethyl)-12-methyl-5-trifluoromethyl-9,12,15,18-tetraaza-tricyclo[18.3.1.0*2,7]tetracosa-1(24),2(7),3,5,20,22-hexaene-10,13,16-trione]",0.5 µg/mL
9,"Cc1cccc2c1-c1cccc(c1)CN[C@@H](CCCN)C(=O)N[C@@H](CCCCN)C(=O)N(C)[C@@H](Cc1c[nH]c3ccccc13)C(=O)NC2 [Example 4, (11S,14S,17S)-14-(4-Amino-butyl)-17-(3-amino-propyl)-11-(1H-indol-3-ylmethyl)-3,12-dimethyl-9,12,15,18-tetraaza-tricyclo[18.3.1.0*2,7]tetracosa-1(23),2(7),3,5,20(24),21-hexaene-10,13,16-trione]",32 µg/mL
10,"CN1C(=O)[C@H](CCCCN)NC(=O)[C@H](CCCN)NCc2cccc(c2)-c2cc(C(F)(F)F)ccc2CNC(=O)[C@@H]1Cc1c[nH]c2ccccc12 [Example 8, (11S,14S,17S)-14-(4-Amino-butyl)-17-(3-amino-propyl)-11-(1H-indol-3-ylmethyl)-12-methyl-4-trifluoromethyl-9,12,15,18-tetraaza-tricyclo[18.3.1.0*2,7]tetracosa-1(24),2(7),3,5,20,22-hexaene-10,13,16-trione]",4 µg/mL
11,"CN1C(=O)[C@H](CCCCN)NC(=O)[C@H](CCCN)NCc2cccc(c2)-c2ccc(Cl)cc2CNC(=O)[C@@H]1Cc1c[nH]c2ccccc12 [Example 5, (11S,14S,17S)-14-(4-Amino-butyl)-17-(3-amino-propyl)-5-chloro-11-(1H-indol-3-ylmethyl)-12-methyl-9,12,15,18-tetraaza-tricyclo[18.3.1.0*2,7]tetracosa-1(23),2(7),3,5,20(24),21-hexaene-10,13,16-trione]",4 µg/mL
